# Laboratory results: ChEMBL document CHEMBL4304757, “Synthetic heterocyclic candidates as promising α-glucosidase inhibitors: An overview” (Eur J Med Chem, 2019)
# System: not listed separately
# Assay: Inhibition of urease (unknown origin) assessed as reduction in ammonia production using urea as substrate after 15 mins by indophenol method
row,Compound,IC50 [µM]
1,Oc1ccc(-c2nc3ccc(Br)cc3[nH]2)cc1,8.3

# Biological target: not listed separately
# Assay: Inhibition of yeast alpha-glucosidase using p-nitrophenyl-alpha-d-glucopyranoside as substrate preincubated with enzyme followed by substrate addition measured after 30 mins by spectrophotometric analysis
# Set-up: species or system Saccharomyces cerevisiae
row,Compound,IC50 [µM]
1,O=C(CCCSc1nc2ccccc2s1)Nc1cccc2ccccc12,10

# Biological target: T1, Alpha glucosidase (Homo sapiens, UniProt O43451+P10253+P14410+Q2M2H8)
# Assay: Inhibition of alpha-glucosidase (unknown origin) using p-nitro phenyl glucopyranoside as substrate preincubated for 10 mins followed by substrate addition measured after 10 mins
# Format: protein assay
row,Compound,IC50 [µM]
1,O=C1NC(=O)/C(=C\c2ccc(-n3ccc4c(Nc5ccccc5OC(F)(F)F)ccnc43)cc2)S1,0.55 to 35
2,O=C1NC(=O)/C(=C\c2ccc(-n3cc([N+](=O)[O-])cn3)cc2)S1,0.55 to 35
3,Cc1nccn1-c1ccc(/C=C2/SC(=O)NC2=O)cc1,0.55 to 35
4,O=C1NC(=O)/C(=C\c2ccc(-n3ccc4c(Br)ccnc43)cc2)S1,0.55 to 35
5,O=C1NC(=O)/C(=C\c2ccc(-n3ccc4c(Nc5ccc(F)cc5)ccnc43)cc2)S1,0.55 to 35
6,O=C(O)CN1C(=O)S/C(=C/c2ccc(-n3ccc4c(Br)ccnc43)cc2)C1=O,0.55 to 35
7,CCOC(=O)CN1C(=O)S/C(=C/c2ccc(-n3ccc4c(Br)ccnc43)cc2)C1=O,0.55
8,O=C1NC(=O)/C(=C\c2ccc(-n3ncc4ccccc43)cc2)S1,0.55 to 35
9,O=C1NC(=O)/C(=C\c2ccc(-n3cnc4ccccc43)cc2)S1,0.55 to 35

# Biological target: not listed separately
# Assay: Inhibition of yeast alpha-glucosidase using p-nitrophenyl-alpha-d-glucopyranoside as substrate preincubated with enzyme followed by substrate addition measured after 30 mins
# Set-up: species or system Saccharomyces cerevisiae
row,Compound,IC50 [µM]
1,CC1=NN(c2ccc(C)cc2)C(=O)/C1=C/c1cn(-c2ccccc2)nc1-c1cc2ccccc2oc1=O,2.1 to 289
2,CC1=NN(c2ccccc2)C(=O)/C1=C/c1cn(-c2ccccc2)nc1-c1cc2ccccc2oc1=O,2.1 to 289
3,O=C1/C(=C/c2cn(-c3ccccc3)nc2-c2cc3ccccc3oc2=O)C(c2ccccc2)=NN1c1ccccc1,2.1 to 289
4,CC1=NN(c2ccc([N+](=O)[O-])cc2)C(=O)/C1=C/c1cn(-c2ccccc2)nc1-c1ccc(-c2ccccc2)cc1,2.1 to 289
5,CC1=NN(c2ccc([N+](=O)[O-])cc2)C(=O)/C1=C/c1cn(-c2ccccc2)nc1-c1cc2cc(Br)ccc2oc1=O,2.1
6,CC1=NN(c2ccc(C)cc2)C(=O)/C1=C/c1cn(-c2ccccc2)nc1-c1cc2cc(Br)ccc2oc1=O,2.1 to 289
7,CC1=NN(c2ccc([N+](=O)[O-])cc2)C(=O)/C1=C/c1cn(-c2ccccc2)nc1-c1cc2ccccc2oc1=O,2.1 to 289
8,CC1=NN(c2ccccc2)C(=O)/C1=C/c1cn(-c2ccccc2)nc1-c1cc2cc(Br)ccc2oc1=O,2.1 to 289
9,CC1=NN(c2ccccc2)C(=O)/C1=C/c1cn(-c2ccccc2)nc1-c1ccc(-c2ccccc2)cc1,2.1 to 289
10,O=C1/C(=C/c2cn(-c3ccccc3)nc2-c2cc3cc(Br)ccc3oc2=O)C(c2ccccc2)=NN1c1ccccc1,2.1 to 289
11,CC1=NN(c2ccc(C)cc2)C(=O)/C1=C/c1cn(-c2ccccc2)nc1-c1ccc(-c2ccccc2)cc1,2.1 to 289

# Biological target: T1, Alpha glucosidase
# Assay: Non-competitive inhibition of alpha-glucosidase (unknown origin) using p-nitro phenyl glucopyranoside as substrate preincubated for 10 mins followed by substrate addition measured after 30 mins
# Format: protein assay
row,Compound,Ki [µM]
1,O=C(N/N=C/c1cc(Cl)cc(Cl)c1O)c1nc(-c2cc3ccccc3oc2=O)cs1,6.8

# Biological target: not listed separately
# Assay: Inhibition of rat intestinal maltase-glucoamylase using p-nitrophenyl alpha-D-glucoside as substrate preincubated for 5 mins followed by substrate addition and measured after 30 mins
row,Compound,IC50 [µM]
1,O=c1oc2ccccc2cc1-c1nn(C(Nc2ccc(Oc3ccc(NC(c4cccc(Br)c4)n4nc(-c5cc6ccccc6oc5=O)oc4=S)cc3)cc2)c2cccc(Br)c2)c(=S)o1 (configuration not stated),0.04

# Biological target: not listed separately
# Assay: Inhibition of mouse alpha-glucosidase
row,Compound,IC50 [µM]
1,COc1ccc(/C=C/C(=O)C2=C(/C=C/c3ccc(OC)c(O)c3)Oc3[nH]c(=O)[nH]c(=O)c3C2c2ccccc2)cc1O (configuration not stated),98 to 413
2,COc1ccc(/C=C/C(=O)C2=C(/C=C/c3ccc(OC)c(O)c3)Oc3[nH]c(=O)[nH]c(=O)c3C2c2cc3ccccc3[nH]2)cc1O (configuration not stated),98 to 413
3,COc1ccc(/C=C/C(=O)C2=C(/C=C/c3ccc(OC)c(O)c3)Oc3[nH]c(=O)[nH]c(=O)c3C2c2ccc(Cl)cc2)cc1O (configuration not stated),98 to 413
4,COc1ccc(/C=C/C(=O)C2=C(/C=C/c3ccc(OC)c(O)c3)Oc3[nH]c(=O)[nH]c(=O)c3C2c2cccc([N+](=O)[O-])c2)cc1O (configuration not stated),98 to 413

# Biological target: T2, Alpha amylase (Homo sapiens, UniProt P0DUB6)
# T2 sequence (P0DUB6 whole entry): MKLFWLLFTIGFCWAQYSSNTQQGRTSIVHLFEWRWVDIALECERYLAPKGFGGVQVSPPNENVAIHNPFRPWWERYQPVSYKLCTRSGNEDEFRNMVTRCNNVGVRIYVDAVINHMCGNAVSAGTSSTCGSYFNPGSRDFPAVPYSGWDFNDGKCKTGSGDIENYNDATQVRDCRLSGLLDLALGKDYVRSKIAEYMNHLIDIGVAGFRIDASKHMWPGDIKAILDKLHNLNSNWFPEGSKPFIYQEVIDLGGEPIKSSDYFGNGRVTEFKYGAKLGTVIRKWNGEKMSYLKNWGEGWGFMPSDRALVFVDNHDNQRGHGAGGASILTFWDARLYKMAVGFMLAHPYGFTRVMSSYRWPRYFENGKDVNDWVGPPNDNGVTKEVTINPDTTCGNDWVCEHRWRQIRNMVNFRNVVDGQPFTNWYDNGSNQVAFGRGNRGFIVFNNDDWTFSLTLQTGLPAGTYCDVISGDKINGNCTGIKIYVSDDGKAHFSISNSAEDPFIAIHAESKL
# Assay: Inhibition of alpha-amylase (unknown origin) using p-nitro phenyl glucopyranoside as substrate preincubated for 10 mins followed by substrate addition measured after 10 mins
row,Compound,IC50 [µM]
1,CCOC(=O)CN1C(=O)S/C(=C/c2ccc(-n3ccc4c(Br)ccnc43)cc2)C1=O,0.85

# Biological target: T1, Alpha glucosidase
# Assay: Inhibition of alpha-glucosidase (unknown origin) using p-nitro phenyl glucopyranoside as substrate preincubated for 5 mins followed by substrate addition measured after 30 mins
# Format: protein assay
row,Compound,IC50 [µM]
1,O=c1oc2ccccc2cc1-c1nn(C(Nc2ccc(Oc3ccc(NC(c4cccc(Br)c4)n4nc(-c5cc6ccccc6oc5=O)oc4=S)cc3)cc2)c2cccc(Br)c2)c(=S)o1 (configuration not stated),0.07

# Biological target: T1, Alpha glucosidase
# Assay: Inhibition of alpha-glucosidase (unknown origin) using p-nitro phenyl glucopyranoside as substrate preincubated for 10 mins followed by substrate addition measured after 30 mins
# Format: protein assay
row,Compound,IC50 [µM]
1,O=C(N/N=C/c1cc(Cl)cc(Cl)c1O)c1nc(-c2cc3ccccc3oc2=O)cs1,6.2

# Biological target: T1, Alpha glucosidase
# Assay: Inhibition of alpha-glucosidase (unknown origin) using p-nitrophenyl-alpha-d-glucopyranoside as substrate preincubated for 5 mins followed by substrate addition measured after 30 mins
# Format: protein assay
row,Compound,IC50 [µM]
1,Cc1ccccc1C(=O)/N=c1\scc(C)n1-c1cc(Cl)c(Cl)cc1Cl,0.15
2,Cc1cs/c(=N\C(=O)c2cccc3ccccc23)n1-c1cc(Cl)c(Cl)cc1Cl,0.15

# Biological target: T1, Alpha glucosidase
# Assay: Competitive inhibition of alpha-glucosidase (unknown origin) using p-nitrophenyl-alpha-d-glucopyranoside as substrate preincubated for 10 mins followed by substrate addition measured after 20 mins
# Format: protein assay
row,Compound,Ki [µM]
1,Cc1ccc(C(c2c(N)c3ccccc3oc2=O)c2c(N)c3ccccc3oc2=O)cc1,22

# Biological target: T1, Alpha glucosidase
# Assay: Inhibition of alpha-glucosidase (unknown origin) using p-nitrophenyl-alpha-d-glucopyranoside as substrate preincubated for 10 mins followed by substrate addition measured after 20 mins
# Format: protein assay
row,Compound,IC50 [µM]
1,Nc1c(C(c2ccccc2Cl)c2c(N)c3ccccc3oc2=O)c(=O)oc2ccccc12,20 to 180
2,Nc1c(C(c2ccc(O)cc2)c2c(N)c3ccccc3oc2=O)c(=O)oc2ccccc12,20 to 180
3,Nc1c(C(c2ccccc2F)c2c(N)c3ccccc3oc2=O)c(=O)oc2ccccc12,20 to 180
4,Nc1c(C(c2cccc(Cl)c2)c2c(N)c3ccccc3oc2=O)c(=O)oc2ccccc12,20 to 180
5,Nc1c(C(c2cccc(Br)c2)c2c(N)c3ccccc3oc2=O)c(=O)oc2ccccc12,20 to 180
6,COc1cc(C(c2c(N)c3ccccc3oc2=O)c2c(N)c3ccccc3oc2=O)cc(Cl)c1O,20 to 180
7,Nc1c(C(c2ccc([N+](=O)[O-])cc2)c2c(N)c3ccccc3oc2=O)c(=O)oc2ccccc12,20 to 180
8,COc1cccc(C(c2c(N)c3ccccc3oc2=O)c2c(N)c3ccccc3oc2=O)c1,20 to 180
9,Nc1c(C(c2ccccc2)c2c(N)c3ccccc3oc2=O)c(=O)oc2ccccc12,20 to 180
10,Nc1c(C(c2cccc(F)c2)c2c(N)c3ccccc3oc2=O)c(=O)oc2ccccc12,20 to 180
11,Cc1ccc(C(c2c(N)c3ccccc3oc2=O)c2c(N)c3ccccc3oc2=O)cc1,20
12,Cc1cccc(C(c2c(N)c3ccccc3oc2=O)c2c(N)c3ccccc3oc2=O)c1,20 to 180
13,COc1cc(C(c2c(N)c3ccccc3oc2=O)c2c(N)c3ccccc3oc2=O)cc(Br)c1O,20 to 180

# Biological target: T1, Alpha glucosidase
# Assay: Inhibition of alpha-glucosidase (unknown origin) using p-nitrophenyl-alpha-d-glucopyranoside as substrate preincubated for 30 mins followed by substrate addition measured after 60 mins
# Format: protein assay
row,Compound,IC50 [µM]
1,Clc1ccc(/N=c2\scc(-c3ccc(Cl)cc3)n2Nc2ccccc2)cc1,9.6

# Biological target: T1, Alpha glucosidase
# Assay: Inhibition of alpha-glucosidase (unknown origin) using p-nitrophenyl-alpha-d-glucopyranoside as substrate preincubated for 30 mins followed by substrate addition measured for 60 secs by spectrophotometric analysis
# Format: protein assay
row,Compound,IC50 [µM]
1,C(=N\Nc1nc(-c2ccc(-c3ccccc3)cc2)cs1)/c1cccc2ccccc12,6.2
2,Oc1ccc(Br)cc1-c1nc2cc(Cl)ccc2s1,22

# Biological target: not listed separately
# Assay: Inhibition of yeast alpha-glucosidase using p-nitrophenyl-alpha-d-glucopyranoside as substrate preincubated for 15 mins followed by substrate addition measured after 30 mins
# Set-up: species or system Saccharomyces cerevisiae
row,Compound,IC50 [µM]
1,Cc1[nH]nc2c1C(c1ccccc1OCc1ccccc1)C(C#N)=C(N)O2 (configuration not stated),60 to 180
2,Cc1ccc(C(CC(=O)c2ccccc2)C(C(=O)Nc2ccccn2)C(=O)Nc2ccccn2)cc1 (configuration not stated),28
3,O=C(CC(c1ccc(Br)cc1)C(C(=O)Nc1ccccn1)C(=O)Nc1ccccn1)c1ccccc1 (configuration not stated),12
4,c1cncc(Cn2cc(Cn3c4ccccc4c4ccccc43)nn2)c1,0.8
5,Cc1n[nH]c2c1C(c1ccc(Cl)cc1Cl)C(C#N)=C(N)O2 (configuration not stated),60 to 180

# Biological target: T1, Alpha glucosidase
# Assay: Potency index, ratio of acarbose IC50 to compound IC50 for inhibition of alpha-glucosidase (unknown origin) using p-nitrophenyl-alpha-d-glucopyranoside as substrate preincubated for 5 mins followed by substrate addition measured after 30 mins
# Format: protein assay
row,Compound,Ratio IC50
1,Cc1ccccc1C(=O)/N=c1\scc(C)n1-c1cc(Cl)c(Cl)cc1Cl,255
2,Cc1cs/c(=N\C(=O)c2cccc3ccccc23)n1-c1cc(Cl)c(Cl)cc1Cl,255

# Biological target: not listed separately
# Assay: Inhibition of yeast alpha-glucosidase
# Set-up: species or system Saccharomyces cerevisiae
row,Compound,IC50 [µM]
1,COc1ccc(/C=C/C(=O)C2=C(/C=C/c3ccc(OC)c(O)c3)Oc3[nH]c(=O)[nH]c(=O)c3C2c2ccccc2)cc1O (configuration not stated),97 to 119
2,COc1ccc(/C=C/C(=O)C2=C(/C=C/c3ccc(OC)c(O)c3)Oc3[nH]c(=O)[nH]c(=O)c3C2c2cc3ccccc3[nH]2)cc1O (configuration not stated),97 to 119
3,COc1ccc(/C=C/C(=O)C2=C(/C=C/c3ccc(OC)c(O)c3)Oc3[nH]c(=O)[nH]c(=O)c3C2c2ccc(Cl)cc2)cc1O (configuration not stated),97 to 119
4,COc1ccc(/C=C/C(=O)C2=C(/C=C/c3ccc(OC)c(O)c3)Oc3[nH]c(=O)[nH]c(=O)c3C2c2cccc([N+](=O)[O-])c2)cc1O (configuration not stated),97 to 119

# Biological target: T1, Alpha glucosidase
# Assay: Inhibition of alpha-glucosidase (unknown origin) using pNPG as substrate preincubated for 15 mins followed by substrate addition
# Format: protein assay
row,Compound,IC50 [µM]
1,Cc1cccc2nc(-c3ccccc3Cl)[nH]c12,5.3
